According to patent publication US12077503B2, “Substituted cyclic amides and their use as herbicides” (FMC CORPORATION, priority 2015, dated 2024):

Assays:
Type in all cases: in vivo
[1] = test system: corn (Zea mays); assay: Test A postemergence; settings: Zea mays, post-emergence, 240 h, 125 g ai/ha, postemergence; visual injury after approximately 10 d; 0 to 100 scale (0 no effect, 100 complete control)
How it was run: (§1)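 Seeded soil received test chemicals as a preemergence directed spray, and seedlings at one to two leaves, 2–10 cm tall, received them postemergence, in a non-phytotoxic, surfactant-containing solvent mixture. Pots were held in a greenhouse for approximately 10 d, then rated for injury from 0, no effect, to 100, complete control.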

[2] = test system: ragweed (common ragweed, Ambrosia elatior); assay: Test A postemergence; settings: Ambrosia artemisiifolia, post-emergence, 240 h, 125 g ai/ha, postemergence; visual injury after approximately 10 d; 0 to 100 scale (0 no effect, 100 complete control); read-out: Plant response rating, Ragweed
How it was run: as §1

[3] = test system: blackgrass (Alopecurus myosuroides); assay: Test A postemergence; settings: Alopecurus myosuroides, post-emergence, 240 h, 125 g ai/ha, postemergence; visual injury after approximately 10 d; 0 to 100 scale (0 no effect, 100 complete control); read-out: Plant response rating, Blackgrass
How it was run: as §1

[4] = test system: Kochia (Kochia scoparia); assay: Test A postemergence; settings: Bassia scoparia, post-emergence, 240 h, 125 g ai/ha, postemergence; visual injury after approximately 10 d; 0 to 100 scale (0 no effect, 100 complete control); read-out: Plant response rating, Kochia
How it was run: as §1

[5] = test system: giant foxtail (Setaria faberii); assay: Test A postemergence; settings: Setaria faberi, post-emergence, 240 h, 125 g ai/ha, postemergence; visual injury after approximately 10 d; 0 to 100 scale (0 no effect, 100 complete control); read-out: Plant response rating, Foxtail, Giant
How it was run: as §1

[6] = test system: ryegrass, Italian (Italian ryegrass, Lolium multiflorum); assay: Test A postemergence; settings: Lolium multiflorum, post-emergence, 240 h, 125 g ai/ha, postemergence; visual injury after approximately 10 d; 0 to 100 scale (0 no effect, 100 complete control); read-out: Plant response rating, Ryegrass, Italian
How it was run: as §1

[7] = test system: wheat (Triticum aestivum); assay: Test A postemergence; settings: Triticum aestivum, post-emergence, 240 h, 125 g ai/ha, postemergence; visual injury after approximately 10 d; 0 to 100 scale (0 no effect, 100 complete control); read-out: Plant response rating, Wheat
How it was run: as §1

[8] = test system: Galium (catchweed bedstraw, Galium aparine); assay: Test A postemergence; settings: Galium, post-emergence, 240 h, 125 g ai/ha, postemergence; visual injury after approximately 10 d; 0 to 100 scale (0 no effect, 100 complete control); read-out: Plant response rating, Galium
How it was run: as §1

[9] = test system: barnyardgrass (Echinochloa crus-galli); assay: Test A postemergence; settings: Echinochloa crus-galli, post-emergence, 240 h, 125 g ai/ha, postemergence; visual injury after approximately 10 d; 0 to 100 scale (0 no effect, 100 complete control); read-out: Plant response rating, Barnyardgrass
How it was run: as §1

[10] = test system: pigweed (Amaranthus retroflexus); assay: Test A postemergence; settings: Amaranthus retroflexus, post-emergence, 240 h, 125 g ai/ha, postemergence; visual injury after approximately 10 d; 0 to 100 scale (0 no effect, 100 complete control); read-out: Plant response rating, Pigweed
How it was run: as §1

[11] = test system: ragweed (common ragweed, Ambrosia elatior); assay: Test A preemergence; settings: Ambrosia artemisiifolia, pre-emergence, 240 h, preemergence, read-out: Plant response rating, Ragweed
How it was run: as §1

[12] = test system: Kochia (Kochia scoparia); assay: Test A preemergence; settings: Bassia scoparia, pre-emergence, 240 h, preemergence, read-out: Plant response rating, Kochia
How it was run: as §1

[13] = test system: giant foxtail (Setaria faberii); assay: Test A preemergence; settings: Setaria faberi, pre-emergence, 240 h, preemergence, read-out: Plant response rating, Foxtail, Giant
How it was run: as §1

[14] = test system: ryegrass, Italian (Italian ryegrass, Lolium multiflorum); assay: Test A preemergence; settings: Lolium multiflorum, pre-emergence, 240 h, preemergence, read-out: Plant response rating, Ryegrass, Italian
How it was run: as §1

[15] = test system: pigweed (Amaranthus retroflexus); assay: Test A preemergence; settings: Amaranthus retroflexus, pre-emergence, 240 h, preemergence, read-out: Plant response rating, Pigweed
[16] = 125 g ai/ha, visual rating after approx. 10 d, 0 to 100 scale where 0 is no effect and 100 is complete control
[17] = 500 g ai/ha, 0 to 100 scale, 0 = no effect, 100 = complete control

Cc1ccc([C@H]2CNC(=O)[C@@H]2C(=O)Nc2cccc(F)c2F)s1 [Compound 729]
0%: Corn plant response rating (crop injury, 0 = no effect, 100 = complete kill) at 125 g/ha [1] | pest or weed control at 125 g/ha [2] | pest or weed control at 125 g/ha [3] | pest or weed control at 125 g/ha [4] | pest or weed control at 125 g/ha [5] | pest or weed control at 125 g/ha [6] | plant injury at 125 g/ha [7] | pest or weed control at 125 g/ha [8] | pest or weed control at 125 g/ha [9] | pest or weed control at 125 g/ha [10] | pest or weed control at 125 g/ha [11, 16] | pest or weed control at 500 g/ha [11, 17] | pest or weed control at 125 g/ha [12, 16] | pest or weed control at 500 g/ha [12, 17] | pest or weed control at 125 g/ha [13, 16] | pest or weed control at 500 g/ha [13, 17] | pest or weed control at 125 g/ha [14, 16] | pest or weed control at 500 g/ha [14, 17] | pest or weed control at 125 g/ha [15, 16] | pest or weed control at 500 g/ha [15, 17]
